Data: patent US10981932B2, “Macrocyclic indole derivatives” (Bayer Aktiengesellschaft, priority 2016, dated 2021)
Counter-ions that a name gives are not always drawn. Like-named read-outs stand apart in the source and are kept apart here.

What was measured:
[1] = tested on: OPM2; assay: Anti-proliferative effect (CellTiter-Glo, 72 h), OPM2; format: cell-based; conditions: OPM2 cells, median, read-out: IC50 antiproliferation assay OPM2 [M] (median)
Summary of the method: (§1)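 Luminescence from CellTiter-Glo, read 10 min after reagent addition, reports viable cell content after 72 h of compound treatment at 37 °C. A reference plate read at day 0 gives the starting baseline.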

[2] = tested on: MV-4-11; assay: Anti-proliferative effect (CellTiter-Glo, 72 h), MV-4-11; format: cell-based; conditions: MV-4-11 cells, median, read-out: IC50 antiproliferation assay MV-4-11 [M] (median)
Summary of the method: as §1

[3] = tested on: SK-MEL-2; assay: Anti-proliferative effect (CellTiter-Glo, 72 h), SK-MEL-2; format: cell-based; conditions: Homo sapiens, SK-MEL-2 cells, median, read-out: IC50 antiproliferation assay SK-MEL-2 [M] (median)
Procedure: Assessment of the Anti-Proliferative Effect of Compounds in Different Cell Lines
(§2) The impact of compounds on the proliferation of different cell lines was assessed using the CellTiter-Glo® Luminescent Cell Viability reagent from Promega (G7573). Of note, SUDHL10 and SUDHL5 (DLBCL), NCI-H929 (Multiple Myeloma), A2780 (ovarian carcinoma) as well as MV-4-11(AML) cells are sensitive to MCL-1 inhibition.
(§3) In parallel, cells were plated in a reference (day 0) plate for time zero determination.
(§4) Rim wells were excluded. The cells were incubated for 72 h hours in a humidified incubator at 37° C. The day 0 plate was measured by adding 30 μl/well of CTG solution (CellTiter-Glo® Luminescent Cell Viability reagent, Promega G7573) to time zero wells in the reference plate followed by a 10 minutes incubation and luminescence reading at 0.1 ms, using the PHERAstar FS microplate reader (BMG Labtech).
(§5) After 72 h incubation, the treated plates were measured in the same way as the day 0 plate mentioned above.

[4] = tested on: NCI-H1703; assay: Anti-proliferative effect (CellTiter-Glo, 72 h), NCI-H1703; format: cell-based; conditions: Homo sapiens, NCI-H1703 cells, median, read-out: IC50 antiproliferation assay NCI-H1703 [M] (median)
Procedure: as §2, §3, §4, §5

[5] = target: T1, BCL-XL (Homo sapiens, UniProt Q07817); assay: Protein-protein interaction assay BCL-XL/Bad BH3 peptide (BCL-XL assay), TR-FRET; format: binding; conditions: His-BCL-XL / Bad BH3-derived peptide
T1 construct: BCL-XL (amino acids 1-212, C-terminal fused to a hexahistidine (6×His) tag); purchased BPS Bioscience (San Diego, Calif., USA); host or cells: E. coli
Procedure: Protein-Protein Interaction Assay: BCL-XL/Bad BH3 Peptide (BCL-XL Assay)
The dose-dependent inhibition by the compounds described in this invention of the interaction between […] and the BH3 domain of Bad (both human) was determined using a steady state binding competition assay with time-resolved fluorescence energy transfer (TR-FRET) readout. For that purpose BCL-2 (amino acids 1-211, C-terminal fused to a hexahistidine (6×His) tag (SEQ ID NO: 3) and a synthetic Bad BH3-derived peptide of sequence Biotin-PEG2-PEG2-NLWAAQRYGRELRR-NIe-SDEFVDSFKK-amide (SEQ ID NO: 2) served as protein receptor and tracer ligand respectively. The recombinant BCL-2 protein (expressed in E. coli) was purchased from BPS Bioscience (San Diego, Calif., USA). The Bad BH3-derived peptide can be obtained from e.g. Biosyntan (Berlin, Germany).
In the assay 11 different concentrations of each compound (0.1 nM, 0.33 nM, 1.1 nM, 3.8 nM, 13 nM, 44 nM, 0.15 μM, 0.51 μM, 1.7 μM, 5.9 μM and 20 μM) were typically measured as duplicates in the same microtiter plate. For that, 100-fold concentrated DMSO solutions were prepared by serial dilutions (1:3.4) of a 2 mM stock solution in a clear, 384-well microtiter plate (Greiner Bio-One, Frickenhausen, Germany). From there, 50 nl were transferred in a dark test plate (Greiner Bio-One. Frickenhausen, Germany). The assay was initiated by addition of 2 μl of a 2,5-fold concentrated Hs-BCL-XL solution (usually for a 1 nM end concentration in 5 μl reaction volume) in aqueous assay buffer [50 mM Tris/HCl pH 7, 100 mM sodium chloride (NaCl), 50 mM potassium fluoride (KF), 0.005% Tween-20, 2 mM DTT, 0.1% bovine gamma globulin (BGG)] to the compounds in the assay plate. This was followed by a 10-minute incubation step at 22° C. for pre-equilibration of the putative complex between His-BCL-XL and the compounds.
The mixture was incubated in the dark for one hour at 22° C. and then overnight at 4° C. The formation of BCL-XL/Bad complexes was determined by measuring the resonance energy transfer of the anti-His- Eu-cryptate antibody to the streptavidin-XL665 present in the reaction. For that purpose, the fluorescence emission at 620 nm and 665 nm after excitation at 330-350 nm was measured in a TR-FRET measuring instrument, for instance a Rubystar or a Pherastar (both from BMG Lab Technologies, Offenburg, Germany) or a Viewlux (Perkin-Elmer). The ratio of the emission at 665 nm and at 622 nm was used as indicator of the amount of BCL-XL/Bad complexes present.
The resulting data (ratio) were normalized, taking 0% inhibition as the mean value of control measurements (usually 32 data points) where all reagents were included. In this case 50 nl DMSO were used instead of compounds. A 100% inhibition corresponded to the mean value of control measurements (usually 32 data points) where all reagents except BCL-XL were included. IC50 values were determined by regression analysis based on a 4 parameter equation (minimum, maximum, IC50, Hill; Y=Max+(Min−Max)/(1+(X/IC50)^Hill) using the Screener Software (Genedata).

T1 sequence (Q07817 1-212): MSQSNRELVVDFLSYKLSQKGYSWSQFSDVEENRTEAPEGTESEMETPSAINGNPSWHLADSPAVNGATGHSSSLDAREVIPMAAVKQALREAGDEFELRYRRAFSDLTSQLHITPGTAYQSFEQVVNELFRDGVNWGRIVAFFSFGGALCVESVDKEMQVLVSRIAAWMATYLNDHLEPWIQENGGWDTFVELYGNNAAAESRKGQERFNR

Structure (SMILES)	IC50 [1]	IC50 [2]	IC50 [3]	IC50 [4]	IC50 [5]	IC50 ([1]; Homo sapiens, OPM-2, 72 h)	IC50 ([2]; Homo sapiens, MV4-11, 72 h)
Cn1nc(COc2ccc(N3CCN(S(=O)(=O)C4CC4)CC3)cc2)c2c1COCCCCn1c(C(=O)O)c(CCCOc3cccc4ccccc34)c3cccc-2c31 (single isomer, unassigned; enantiomer 2) [Example 1-13, 3-({4-[4-(cyclopropylsulfonyl)piperazin-1-yl]phenoxy}methyl)-1-methyl-7-[3-(naphthalen-1-yloxy)propyl]-1,10,11,12,13,15-hexahydropyrazolo[4′,3′:9,10][1,6]oxazacycloundecino[8,7,6-hi]indole-8-carboxylic Acid (Enantiomer 2)]	6.34e-07 M	1.35e-06 M	4.96e-06 M	2.67e-06 M	> 20 µM		
CCc1c2c(nn1C)CN(C)CCCn1c(C(=O)O)c(CCCOc3cccc4ccccc34)c3ccc(C)c-2c31 (single isomer, unassigned; enantiomer 1) [Example 145, 11-Ethyl-7,10,12-trimethyl-1-[3-(1-naphthyloxy)propyl]-4,5,6,7,8,10-hexahydropyrazolo[3′,4′:7,8][1,5]diazecino[9,10,1-hi]indole-2-carboxylic acid-N-ethylethanamine Salt (Enantiomer 1)]			1.17e-05 M	6.53e-06 M	> 20 µM	3.22e-06 M	4.3e-06 M
CCc1c2c(nn1C)COCCCCn1c(C(=O)O)c(CCCOc3cccc4ccccc34)c3ccc(C)c-2c31 (single isomer, unassigned; enantiomer 1) [Example 154, 3-Ethyl-2,4-dimethyl-7-[3-(1-naphthyloxy)propyl]-2,10,11,12,13,15-hexahydropyrazolo[4′,3′:9,10][1,6]oxazacycloundecino[8,7,6-hi]indole-8-carboxylic acid-N-ethylethanamine Salt (Enantiomer 1)]			1.84e-05 M	6.84e-06 M	> 20 µM	2e-06 M	1.36e-06 M
CN1CCCn2c(C(=O)O)c(CCCOc3cccc4ccccc34)c3cccc(c32)-c2c(COc3ccc(N4CCN(S(=O)(=O)N(C)C)CC4)cc3)nn(C)c2C1 (single isomer, unassigned; enantiomer 1) [Example 1-15, (+)-11-({4-[4-(dimethylsulfamoyl)piperazin-1-yl]phenoxy}methyl)-7,9-dimethyl-1-[3-(naphthalen-1-yloxy)propyl]-4,5,6,7,8,9-hexahydropyrazolo[3′,4′:7,8][1,5]diazecino[9,10,1-hi]indole-2-carboxylic Acid (Enantiomer 1)]	1.91e-06 M		> 3.3e-05 M	1.1e-05 M	> 20 µM		3.52e-06 M
CCc1c2c(nn1C)COCCCCn1c(C(=O)O)c(CCCOc3cccc4ccccc34)c3cccc-2c31 (single isomer, unassigned; enantiomer 1) [Example 148, 3-Ethyl-2-methyl-7-[3-(1-naphthyloxy)propyl]-2,10,11,12,13,15-hexahydropyrazolo[4′,3′:9,10][1,6]oxazacycloundecino[8,7,6-hi]indole-8-carboxylic acid-N-ethylethanamine Salt (Enantiomer 1)]			2.67e-05 M	9.36e-06 M	> 20 µM	2.74e-06 M	9.73e-07 M
Cn1nc(COc2ccc(N3CCN(S(C)(=O)=O)CC3)cc2)c2c1COCCCCn1c(C(=O)O)c(CCCOc3cccc4ccccc34)c3cccc-2c31 (single isomer, unassigned; enantiomer 2) [Example 1-10, 1-methyl-3-({4-[4-(methylsulfonyl)piperazin-1-yl]phenoxy}methyl)-7-[3-(naphthalen-1-yloxy)propyl]-1,10,11,12,13,15-hexahydropyrazolo[4′,3′:9,10][1,6]oxazacycloundecino[8,7,6-hi]indole-8-carboxylic acid (enantiomer 2)]	2.81e-06 M	2.29e-06 M	1.12e-05 M	5.52e-06 M	> 20 µM		
